The supplement of paper PMC10307832

How the values were obtained:
CX-5461 + Foretinib = compound: Cc1cnc(CNC(=O)c2c(=O)c3ccc(N4CCCN(C)CC4)nc3n3c2sc2ccccc23)cn1 [CX-5461] + COc1cc2c(Oc3ccc(NC(=O)C4(C(=O)Nc5ccc(F)cc5)CC4)cc3F)ccnc2cc1OCCCN1CCOCC1 [Foretinib] (partner 0.25 µM); assay: relative viability (nuclei count vs DMSO), 5 days (fraction); higher = more cells survive
Method in brief: (§1)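 Relative viability was taken as the ratio of nuclei in treated wells to nuclei in vehicle wells. Lung cancer cell lines in 1536-well plates received compounds by pin tool one day after seeding, either one drug alone or a fixed anchor-drug dose plus five library-drug doses (not always all listed) in √10 steps. Nuclei were counted on 4× images after 5 days of treatment, and values are medians of duplicate plates.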

IMD-0354 + Tozasertib = compound: O=C(Nc1cc(C(F)(F)F)cc(C(F)(F)F)c1)c1cc(Cl)ccc1O [IMD-0354] + Cc1cc(Nc2cc(N3CCN(C)CC3)nc(Sc3ccc(NC(=O)C4CC4)cc3)n2)n[nH]1 [Tozasertib] (partner 0.1 µM); assay: as above
Method in brief: as §1

Cell Line | relative viability (CX-5461 + Foretinib; first compound 0.01 µM) | relative viability (CX-5461 + Foretinib; first compound 0.03162 µM) | relative viability (CX-5461 + Foretinib; first compound 0.1 µM) | relative viability (CX-5461 + Foretinib; first compound 0.3162 µM) | relative viability (CX-5461 + Foretinib; first compound 1 µM) | relative viability (IMD-0354 + Tozasertib; first compound 0.04 µM) | relative viability (IMD-0354 + Tozasertib; first compound 0.1265 µM) | relative viability (IMD-0354 + Tozasertib; first compound 0.4 µM) | relative viability (IMD-0354 + Tozasertib; first compound 1.265 µM) | relative viability (IMD-0354 + Tozasertib; first compound 4 µM)
NCI-H358 | 0.671 | 0.666 | 0.791 | 0.236 | 0.336 | 0.11 | 0.1 | 0.0993 | 0.0845 | 0.0798
NCI-H460 | 0.912 | 0.955 |  | 1.04 | 0.0917 | 0.485 | 0.35 | 0.443 | 0.127 | 0.0269
NCI-H661 | 0.928 | 0.98 | 0.985 | 0.497 | 0.673 | 0.319 | 0.344 | 0.34 | 0.273 | 0.257
HCC-15 | 1.11 | 1.02 | 0.978 | 0.895 | 0.591 | 0.331 | 0.379 | 0.31 | 0.17 | 0.098
ABC-1 | 0.909 | 0.91 | 0.651 |  | 0.585 | 0.169 | 0.181 | 0.174 | 0.118 | 0.161
LCLC-103H | 0.81 | 0.867 | 0.681 | 1.02 | 0.798 | 0.597 | 0.509 | 0.425 | 0.449 | 0.222
NCI-H441 | 0.88 | 1.02 | 0.615 | 0.889 | 0.778 | 0.79 | 0.667 | 0.397 | 0.295 | 0.24
EPLC-272H | 0.651 | 0.681 | 0.78 |  | 0.467 | 0.256 | 0.241 | 0.16 | 0.24 | 0.113
